Values quoted from earlier work, collected in patent US20210393522A1, “COMPOSITIONS FOR SOLUBILIZING WATER-INSOLUBLE ACTIVE INGREDIENTS” (priority 2020, published 2021).

Columns and labels:
[1] = oil-based delivery systems; humans; Agurell 1981

Row | Solubility in water [nanograms per ml] | Compound | Share of total CBD absorbed [1] [%]
1 | – | C=C(C)[C@@H]1CCC(C)=C[C@H]1c1c(O)cc(CCCCC)cc1O [CBD, cannabidiol] | 4
2 | 5 | CC(C)(Sc1cc(C(C)(C)C)c(O)c(C(C)(C)C)c1)Sc1cc(C(C)(C)C)c(O)c(C(C)(C)C)c1 [Probucol, 4,4′-[Propane-2,2-diylbis(thio)]bis(2,6-di-tert-butylphenol)] | –
